Where two headings read alike, the source gives them in different places.
How the values were obtained:
human orexin 2 receptor = human orexin 2 receptor (Homo sapiens (Human), UniProt O43614); assay: Human orexin 2 receptor radioligand binding (competitive, [3H]-EMPA, HEK293 cell preparations)
human orexin 1 receptor = human orexin 1 receptor (Homo sapiens (Human), UniProt O43613); assay: Human orexin 1 receptor radioligand binding (competitive, [3H]-SB674042, CHO cell preparations)
rat orexin 1 receptor = rat orexin 1 receptor (Rattus norvegicus, UniProt P56718); assay: Rat orexin 1 receptor radioligand binding (competitive, [3H]-SB674042, HEK293 cell preparations)
[1] = human orexin 2 receptor, [3H]-EMPA competition binding, read-out: hOX2 Ki (nm)
[2] = human orexin 1 receptor, [3H]-SB674042 competition binding, read-out: hOX1 Ki (nm)
[3] = rat orexin 1 receptor, [3H]-SB674042 competition binding, read-out: rOX1 Ki (nm)

human orexin 1 receptor, sequence (O43613 whole entry): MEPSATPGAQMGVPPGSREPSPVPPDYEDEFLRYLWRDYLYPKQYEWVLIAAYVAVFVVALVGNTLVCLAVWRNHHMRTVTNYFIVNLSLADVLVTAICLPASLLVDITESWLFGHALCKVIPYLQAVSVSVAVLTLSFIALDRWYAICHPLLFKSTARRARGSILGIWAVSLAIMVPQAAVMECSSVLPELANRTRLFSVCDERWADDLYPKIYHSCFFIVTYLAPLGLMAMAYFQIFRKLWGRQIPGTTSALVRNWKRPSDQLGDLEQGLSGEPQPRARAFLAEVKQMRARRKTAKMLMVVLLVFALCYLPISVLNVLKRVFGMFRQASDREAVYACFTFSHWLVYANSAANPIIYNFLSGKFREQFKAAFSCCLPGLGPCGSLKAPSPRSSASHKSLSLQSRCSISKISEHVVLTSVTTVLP
human orexin 2 receptor, sequence (O43614 whole entry): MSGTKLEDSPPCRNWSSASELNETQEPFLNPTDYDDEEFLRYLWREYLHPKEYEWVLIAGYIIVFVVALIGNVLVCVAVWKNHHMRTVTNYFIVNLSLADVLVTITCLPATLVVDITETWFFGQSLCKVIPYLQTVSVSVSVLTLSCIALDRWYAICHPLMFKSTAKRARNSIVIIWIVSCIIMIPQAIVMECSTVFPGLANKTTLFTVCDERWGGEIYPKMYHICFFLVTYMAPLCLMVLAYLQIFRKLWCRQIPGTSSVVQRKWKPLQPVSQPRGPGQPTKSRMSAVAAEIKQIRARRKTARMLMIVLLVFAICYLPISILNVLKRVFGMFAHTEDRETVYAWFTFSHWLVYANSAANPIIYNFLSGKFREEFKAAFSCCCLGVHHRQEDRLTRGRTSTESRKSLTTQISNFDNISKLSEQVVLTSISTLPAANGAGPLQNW

| SMILES | Ki (human orexin 2 receptor; [1]) | Ki (human orexin 1 receptor; [2]) | Ki (rat orexin 1 receptor; [3]) | Ki (human orexin 1 receptor; hOX1 Ki (nm)) | Ki (rat orexin 1 receptor; rOX1 Ki (nm)) | also measured |
| --- | --- | --- | --- | --- | --- | --- |
| O=C(c1cc(Cl)ccc1-n1nccn1)N1C2CCC1C(COc1ccc(F)cn1)C2 (racemic) [Example 120, (±)-(5-chloro-2-(2H-1,2,3-triazol-2-yl)phenyl)(2-(((5-fluoropyridin-2-yl)oxy)methyl)-7-azabicyclo[2.2.1]heptan-7-yl)methanone] | 0.124 µM | 0.014 µM | 0.015 µM | – | – | – |
| Cc1ccc(C(=O)N2C3CCC2C(COc2ccc(F)cn2)C3)c(-n2nccn2)c1 (racemic) [Example 121, (±)-(2-(((5-fluoropyridin-2-yl)oxy)methyl)-7-azabicyclo[2.2.1]heptan-7-yl)(4-methyl-2-(2H-1,2,3-triazol-2-yl)phenyl)methanone] | 0.34 µM | 0.068 µM | 0.078 µM | – | – | – |
| Cc1ccc(C(=O)N2C3CCC2C(COc2ccc(F)cn2)C3)c(-c2ncccn2)c1 (racemic) [Example 122, (±)-(2-(((5-fluoropyridin-2-yl)oxy)methyl)-7-azabicyclo[2.2.1]heptan-7-yl)(4-methyl-2-(pyrimidin-2-yl)phenyl)methanone] | 1 µM | 0.154 µM | 0.118 µM | – | – | – |
| O=C(c1cccc(F)c1-c1ncccn1)N1C2CCC1C(COc1ccc(F)cn1)C2 (racemic) [Example 124, (±)-(3-fluoro-2-(pyrimidin-2-yl)phenyl)(−2-(((5-fluoropyridin-2-yl)oxy)methyl)-7-azabicyclo[2.2.1]heptan-7-yl)methanone] | 0.355 µM | – | – | 0.052 µM | 0.083 µM | – |
| Cc1cccc(C(=O)N2C3CCC2C(COc2ccc(F)cn2)C3)c1-n1nccn1 (racemic) [Example 125, (±)-(2-(((5-fluoropyridin-2-yl)oxy)methyl)-7-azabicyclo[2.2.1]heptan-7-yl)(3-methyl-2-(2H-1,2,3-triazol-2-yl)phenyl)methanone] | 0.132 µM | – | – | 0.029 µM | 0.047 µM | – |
| O=C(c1cc(CO)ccc1-n1nccn1)N1C2CCC1C(COc1ccc(F)cn1)C2 (racemic) [Example 126, (±)-(2-(((5-fluoropyridin-2-yl)oxy)methyl)-7-azabicyclo[2.2.1]heptan-7-yl)(5-(hydroxymethyl)-2-(2H-1,2,3-triazol-2-yl)phenyl)methanone] | 0.231 µM | 0.027 µM | 0.023 µM | – | – | – |
| CCOc1ncc(Br)cc1C(=O)N1C2CCC1C(COc1ccccn1)C2 (racemic) [Example 157, (±)-(5-bromo-2-ethoxypyridin-3-yl)(2-((pyridin-2-yloxy)methyl)-7-azabicyclo[2.2.1]heptan-7-yl)methanone] | 0.537 µM | – | – | 0.134 µM | 0.094 µM | – |
| CCOc1ccnc(OCC)c1C(=O)N1C2CCC1C(COc1ccccn1)C2 (racemic) [Example 163, (±)-(2,4-diethoxypyridin-3-yl)(2-((pyridin-2-yloxy)methyl)-7-azabicyclo[2.2.1]heptan-7-yl)methanone] | 0.15 µM | 0.153 µM | 0.15 µM | – | – | – |
| Cc1ccc(-n2nccn2)c(C(=O)N2C3CCC2C(COc2ncccc2C)C3)n1 (racemic) [Example 176, (±)-(6-methyl-3-(2H-1,2,3-triazol-2-yl)pyridin-2-yl)(2-(((3-methylpyridin-2-yl)oxy)methyl)-7-azabicyclo[2.2.1]heptan-7-yl)methanone] | 0.202 µM | – | – | – | – | Ki (human orexin 1 receptor; read-out: hOX1 Ki (nm)): 0.15 µM; Ki (rat orexin 1 receptor; read-out: rOX1 Ki (nm)): 0.119 µM |
| Cc1cnc(C(=O)N2C3CCC2C(Nc2cnc(C(F)(F)F)cn2)C3)c(-n2nccn2)c1 (racemic) [Example 184, (±)-(5-methyl-3-(2H-1,2,3-triazol-2-yl)pyridin-2-yl)(2-(5-(trifluoromethyl)pyrazin-2-yl)amino)-7-azabicyclo[2.2.1]heptan-7-yl)methanone] | – | 0.349 µM | 0.189 µM | – | – | Ki (human orexin 2 receptor; hOX2 Ki (nm)): 4.1 µM |
| Cc1ccc(-n2nccn2)c(C(=O)N2C3CCC2C(Nc2cnc(C(F)(F)F)cn2)C3)n1 (racemic) [Example 186, (±)-(6-methyl-3-(2H-1,2,3-triazol-2-yl)pyridin-2-yl)(2-(5-(trifluoromethyl)pyrazin-2-yl)amino)-7-azabicyclo[2.2.1]heptan-7-yl)methanone] | – | – | – | 0.164 µM | 0.134 µM | Ki (human orexin 2 receptor; hOX2 Ki (nm)): 1.2 µM |
| O=C(c1cccc(F)c1-c1ncccn1)N1C2CCC1C(Nc1ccc(C(F)(F)F)cn1)C2 (racemic) [Example 192, (±)-(3-fluoro-2-(pyrimidin-2-yl)phenyl)(2-((5-(trifluoromethyl)pyridin-2-yl)amino)-7-azabicyclo[2.2.1]heptan-7-yl)methanone] | – | – | – | 0.052 µM | 0.06 µM | Ki (human orexin 2 receptor; hOX2 Ki (nm)): 1.5 µM |
| Cc1ccc(-c2ncccn2)c(C(=O)N2C3CCC2C(Nc2ccc(C(F)(F)F)cn2)C3)n1 (racemic) [Example 195, (±)-(6-methyl-3-(pyrimidin-2-yl)pyridin-2-yl)(2-(5-(trifluoromethyl)pyridin-2-yl)amino)-7-azabicyclo[2.2.1]heptan-7-yl)methanone] | – | – | – | 0.037 µM | 0.057 µM | Ki (human orexin 2 receptor; hOX2 Ki (nm)): 0.325 µM |
| O=C(c1ccccc1-n1nccn1)N1C2CCC1C(Nc1ccc(C(F)(F)F)cn1)C2 (racemic) [Example 196, (±)-(2-(2H-1,2,3-triazol-2-yl)phenyl)(2-(5-(trifluoromethyl)pyridin-2-yl)amino)-7-azabicyclo[2.2.1]heptan-7-yl)methanone] | 1.5 µM | – | – | 0.061 µM | 0.059 µM | – |
| O=C(c1ccccc1-n1nccn1)N1C2CCC1C(Nc1cnc3ccccc3n1)C2 (racemic) [Example 204, (±)-(2-(2H-1,2,3-triazol-2-yl)phenyl)(2-(quinoxalin-2-ylamino)-7-azabicyclo[2.2.1]heptan-7-yl)methanone] | – | – | – | 0.025 µM | 0.033 µM | Ki (human orexin 2 receptor; hOX2 Ki (nm)): 0.22 µM |
| Cc1ccc(-n2nccn2)c(C(=O)N2C3CCC2C(Nc2cnc4ccccc4n2)C3)n1 (racemic) [Example 205, (±)-(6-methyl-3-(2H-1,2,3-triazol-2-yl)pyridin-2-yl)(2-(quinoxalin-2-ylamino)-7-azabicyclo[2.2.1]heptan-7-yl)methanone] | – | – | – | 0.05 µM | 0.079 µM | Ki (human orexin 2 receptor; hOX2 Ki (nm)): 0.168 µM |
| Cc1ccc(-c2ncccn2)c(C(=O)N2C3CCC2C(Nc2cnc4ccccc4n2)C3)n1 (racemic) [Example 208, (±)-(6-methyl-3-(pyrimidin-2-yl)pyridin-2-yl)(2-(quinoxalin-2-ylamino)-7-azabicyclo[2.2.1]heptan-7-yl)methanone] | 0.09 µM | – | – | 0.03 µM | 0.026 µM | – |
| O=C(c1ccccc1-n1nccn1)N1C2CCC1C(Nc1ccc(Cl)cn1)C2 (racemic) [Example 211, (±)-(2-(2H-1,2,3-triazol-2-yl)phenyl)(2-(((5-chloropyridin-2-yl)amino)-7-azabicyclo[2.2.1]heptan-7-yl)methanone] | 1.8 µM | – | – | 0.055 µM | 0.11 µM | – |
| O=C(c1ccccc1-n1nccn1)N1C2CCC1C(Nc1nc3cc(Cl)ccc3o1)C2 (racemic) [Example 216, (±)-(2-(2H-1,2,3-triazol-2-yl)phenyl)(2-((5-chlorobenzo[d]oxazol-2-yl)amino)-7-azabicyclo[2.2.1]heptan-7-yl)methanone] | 0.475 µM | – | – | 0.071 µM | 0.099 µM | – |
| Cc1ccc(-c2ncccn2)c(C(=O)N2C3CCC2C(Nc2ccc(Br)cn2)C3)n1 (racemic) [Example 217, (±)-(2-((5-bromopyridin-2-yl)amino)-7-azabicyclo[2.2.1]heptan-7-yl)(6-methyl-3-(pyrimidin-2-yl)pyridin-2-yl)methanone] | 0.77 µM | – | – | 0.04 µM | 0.059 µM | – |
| Cc1ccc(-c2ncccn2)c(C(=O)N2[C@@H]3CC[C@H]2[C@H](COc2ccccn2)C3)n1 (single isomer, unassigned) [Example 3A, (6-methyl-3-(pyrimidin-2-yl)pyridin-2-yl)((1S*,2R*,4R*)-2-((pyridin-2-yloxy)methyl)-7-azabicyclo[2.2.1]heptan-7-yl)methanone] | – | – | – | 0.019 µM | 0.024 µM | Ki (human orexin 2 receptor; hOX2 Ki (nm)): 0.268 µM |
| CCOc1ccc(C)nc1C(=O)N1C2CCC1C(Nc1cnc3ccccc3n1)C2 (single isomer, unassigned) [Example 207, (±)-(3-ethoxy-6-methylpyridin-2-yl)(2-(quinoxalin-2-ylamino)-7-azabicyclo[2.2.1]heptan-7-yl)methanone] | 0.064 µM | 0.095 µM | 0.12 µM | – | – | – |
| O=C(c1cccc(F)c1-c1ncccn1)N1[C@@H]2CC[C@H]1[C@H](Nc1cnc(C(F)(F)F)cn1)C2 [Example 238, (3-fluoro-2-(pyrimidin-2-yl)phenyl)((1S,2R,4R)-2-((5-(trifluoromethyl)pyrazin-2-yl)amino)-7-azabicyclo[2.2.1]heptan-7-yl)methanone] | – | – | – | – | – | Ki (human orexin 2 receptor; read-out: hOX2 Ki (nm)): 0.955 µM; Ki (human orexin 1 receptor; read-out: hOX1 Ki (nm)): 0.016 µM; Ki (rat orexin 1 receptor; read-out: rOX1 Ki (nm)): 0.016 µM |
| COc1ccc(C(=O)N2[C@@H]3CC[C@H]2[C@H](Nc2cnc(C(F)(F)F)cn2)C3)c(-n2nccn2)c1 [Example 241, (4-methoxy-2-(2H-1,2,3-triazol-2-yl)phenyl)((1S,2R,4R)-2-((5-(trifluoromethyl)pyrazin-2-yl)amino)-7-azabicyclo[2.2.1]heptan-7-yl)methanone] | 5.06 µM | 0.159 µM | 0.134 µM | – | – | – |
| COc1cccc(-n2nccn2)c1C(=O)N1[C@@H]2CC[C@H]1[C@H](Nc1cnc(C(F)(F)F)cn1)C2 [Example 242, (2-methoxy-6-(2H-1,2,3-triazol-2-yl)phenyl)((1S,2R,4R)-2-((5-(trifluoromethyl)pyrazin-2-yl)amino)-7-azabicyclo[2.2.1]heptan-7-yl)methanone] | 0.239 µM | – | – | – | – | Ki (human orexin 1 receptor; read-out: hOX1 Ki (nm)): 0.041 µM; Ki (rat orexin 1 receptor; read-out: rOX1 Ki (nm)): 0.031 µM |
| O=C(c1cc(F)ccc1-c1ncccn1)N1[C@@H]2CC[C@H]1[C@H](Nc1cnc(C(F)(F)F)cn1)C2 [Example 243, (5-fluoro-2-(pyrimidin-2-yl)phenyl)((1S,2R,4R)-2-((5-(trifluoromethyl)pyrazin-2-yl)amino)-7-azabicyclo[2.2.1]heptan-7-yl)methanone] | 0.723 µM | – | – | – | – | Ki (human orexin 1 receptor; read-out: hOX1 Ki (nm)): 0.045 µM; Ki (rat orexin 1 receptor; read-out: rOX1 Ki (nm)): 0.034 µM |

— patent US9062078B2, “Substituted 7-azabicyles and their use as orexin receptor modulators” (priority 2013, dated 2015)
